The values that follow come from ChEMBL document CHEMBL5104182, “Design and Synthesis of a 2-Amino-pyridine Derivative as a Potent CDK8 Inhibitor for Anti-colorectal Cancer Therapy” (J Med Chem, 2022).

Structures are written as SMILES. Active and inactive are the calls of the source. The calls are words filed in the database; no cut-off is given here.

A word on the GI50: it is the concentration that inhibits growth by half. The MRT is the average time that molecules of a dose stay in the body. One may read the IC50 as the concentration that inhibits the measured activity by half.

Series [1] concerns the target T1, Cyclin-dependent kinase 8 (Homo sapiens, UniProt P49336). The experiment in a line: Binding affinity to CDK8 in human HCT-116 cells by measuring competition with biotinylated (1-(4-((6-aminopyridin-3-yl)oxy)phenyl)-3-(3-(trifluoromethyl)-phenyl)urea hydrochloride). It counts as cell-based.
In series [2] the test system is HCT-116. As to the kind of experiment: Decrease in WNT-3alpha expression in human HCT-116 cells at 1 to 4 uM incubated for 12hrs by western blotting analysis. Format: functional, cell-based. Particulars: dose 1-4 µM. Background: A western blot detects proteins with antibodies after separation by electrophoresis.
In series [3] the test system is CT26. As to the kind of experiment: Antiproliferative activity against […] cells assessed as cell viability incubated for 48 hrs by MTT assay. It counts as functional. Particulars: Mus musculus. (In general: Tetrazolium dyes change colour on reduction, which living cells bring about.)
Series [4] can be described thus: Cytotoxicity against human GES1 cells assessed as cell viability incubated for 48 hrs by MTT assay. Format: toxicity, cell-based.
Series [5] can be described thus: Toxicity in Balb/c mouse assessed as ALT level in serum at 1000 mg/kg, using gastric tube. Format: organism-based. Particulars: in vivo, po, route ig.
Series [6] concerns HCT-116. As to the kind of experiment: Decrease in Cyclin D1 expression in human HCT-116 cells at 1 to 4 uM incubated for 48 hrs by western blotting analysis. Format: functional, cell-based. Particulars: dose 1-4 µM.
In series [7] the test system is HCT-116. As to the kind of experiment: Decrease in beta-catenin/TCF/Lef combination expression in human HCT-116 cells at 1 to 4 uM incubated for 24 hrs by western blotting analysis. It counts as functional, cell-based. The conditions noted are these: dose 1-4 µM.
Series [8] has as its system HCT-116. As to the kind of experiment: Induction of cell cycle arrest in human HCT-116 cells assessed as decrease in p-Rb S780 level incubated for 24 hrs by Western blot analysis. It counts as functional, cell-based.
Another series concerns SW480. The experiment in a line: Antiproliferative activity against human SW480 cells assessed as cell viability incubated for 48 hrs by MTT assay. It counts as functional.
The nature of series [9]: MRT in Sprague-Dawley rat at 10 mg/kg, po upto 24 hrs by HPLC analysis. Format: ADME, organism-based. Particulars: in vivo.
Series [10] is described as follows: Toxicity in ICR mouse assessed as lung damage at 1000 mg/kg, using gastric tube by H&E staining assay. It counts as organism-based. Particulars: in vivo, po, route ig.
Series [11] in a line: Toxicity in ICR mouse assessed as kidney damage at 1000 mg/kg, using gastric tube by H&E staining assay. It counts as organism-based. The conditions noted are these: in vivo, po, route ig.
The test system of series [12] is CT26. As to the kind of experiment: Anticancer activity against mouse CT26 cells transplanted in […] mouse assessed as reduction in tumor volume at 10 to 40 mg/kg, po daily measured after 21 days. It counts as functional, organism-based. Particulars: dose 10-40 mg/kg, time 21.0 day.
Series [13] addresses T1, Cyclin-dependent kinase 8. As to the kind of experiment: Inhibition of CDK8 (unknown origin) assessed as inhibition rate.

T1 sequence (P49336 whole entry): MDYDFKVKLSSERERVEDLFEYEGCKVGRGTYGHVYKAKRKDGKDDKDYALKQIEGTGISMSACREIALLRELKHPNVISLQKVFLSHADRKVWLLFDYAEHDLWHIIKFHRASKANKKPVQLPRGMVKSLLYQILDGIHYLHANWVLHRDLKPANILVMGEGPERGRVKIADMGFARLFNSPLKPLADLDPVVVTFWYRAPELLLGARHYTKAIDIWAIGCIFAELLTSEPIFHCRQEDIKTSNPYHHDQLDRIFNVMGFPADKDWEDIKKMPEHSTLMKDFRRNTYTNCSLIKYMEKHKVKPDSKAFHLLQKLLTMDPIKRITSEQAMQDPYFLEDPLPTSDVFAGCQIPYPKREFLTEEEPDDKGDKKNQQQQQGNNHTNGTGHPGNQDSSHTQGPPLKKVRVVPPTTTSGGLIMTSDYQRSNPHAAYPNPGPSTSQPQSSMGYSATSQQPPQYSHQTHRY

As for `Nc1ccc(Oc2ccc(NC(=O)Nc3cccc(C(F)(F)F)c3)cc2)cn1`, the result (in [1]; with HCT-116 [2]; in the series on HCT-116 [6]; in the series on HCT-116 [7]; in the series on HCT-116 [8]; with CT26 [12]) was Active. Also, the concentration for 50% growth inhibition (GI50) with CT26 [3] was found to be 5.5 µM; in the series with SW480, 2.4 µM. Further, in series [4], the GI50 at 48 h turned out to be 62.7 µM. In addition, the Activity result in [5], in series [10] and in series [11] was “Non-Toxic” in each case. Moreover, the MRT in [9] amounted to 1.6 h. In series [13], the IC50 is 0.0465 µM.
